Measured values: patent US11992494B2, “Cyclopentathiophene carboxamide derivatives as platelet activating factor receptor antagonists” (Boehringer Ingelheim International GmbH, priority 2021, dated 2024)

Target: PAFR (Homo sapiens, UniProt P25105)
Test: cellular HTRF IP1 assay: inhibition of PAFR activation by PAF C-16 ligand (endpoint assay)
Type: cell-based
Parameters: expressed in transfected cells; host or cells: HEK293
Method: The ability of compounds of formula (I) to inhibit the activation of the PAF receptor (PAFR) by the PAF C-16 ligand (PAF) is determined using the following cellular HTRF IP1 assay (IP1 Gq assay kit from Cisbio, Cat. no.: 62IP1APEJ) in assay buffer (1×HBSS, 20 mM Hepes, pH 7.4, 50 mM LiCl and containing 0.1% (w/v) BSA):
Evaluation of the Inhibition of PAFR Activation Using an Endpoint Assay
HEK293 cells overexpressing human PAFR (produced in-house) are seeded into a Poly-D-Lysine coated 384 well white cell culture microtiter assay plate with lid (15.000 cells per well). Subsequently, the plates are incubated over night at 37° C./5% CO2. On the next day, cells are being washed and subsequently, various concentrations of the test compounds (compounds in 100% DMSO; final concentration of DMSO in wells is 1%) are added to the assay plate via Echo 555 acoustic liquid handler. Plates are then incubated with lid for 90 minutes at 37° C./5% CO2. Thereafter, PAF ligand (Cayman Chemical Company, Item no.: 60900) is added at a final concentration of 11 nM. Plates are then incubated with lid for 60 minutes at 37° C./5% CO2. Then, 5 μl per well of Anti-IP1-Antibody-Cryptate solution and 5 μl per well of IP1-d2 solution are added to all wells of the plate and the plate is incubated for another 60 minutes light protected at room temperature. The emissions at 620 nm and 665 nm (Excitation wavelength: 320 nm) are measured using an Envision Reader (PerkinElmer).

[1] = HEK293 cells overexpressing human PAFR, PAF ligand 11 nM, Table 2
[2] = dedicated head-to-head comparison assay run: cyclopropylene vs di-methyl / cyclobutylene analogues

Chain of PAFR (P25105 whole entry): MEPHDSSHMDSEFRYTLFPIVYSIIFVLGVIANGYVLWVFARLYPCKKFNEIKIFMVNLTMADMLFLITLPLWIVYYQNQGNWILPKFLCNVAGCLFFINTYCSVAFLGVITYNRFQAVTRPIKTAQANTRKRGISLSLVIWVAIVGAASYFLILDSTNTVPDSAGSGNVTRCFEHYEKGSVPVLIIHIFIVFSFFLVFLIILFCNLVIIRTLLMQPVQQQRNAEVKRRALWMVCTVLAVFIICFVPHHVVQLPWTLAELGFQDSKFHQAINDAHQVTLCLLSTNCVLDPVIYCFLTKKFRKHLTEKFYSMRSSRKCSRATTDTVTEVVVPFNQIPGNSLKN

IC50 [1] | Compound | other results
3.6 nM | Cc1nnc2n1-c1sc3c(c1C(c1ccccc1Cl)=NC21CC1)C[C@H](C(=O)N1CC2CC1C2)C3 [Example 11] | –
5.1 nM | Cc1nnc2n1-c1sc3c(c1C(c1ccccc1Cl)=NC21CC1)C[C@H](C(=O)N[C@H]1COC[C@H]1C(C)C)C3 [Example 88] | –
3.8 nM | Cc1nnc2n1-c1sc3c(c1C(c1ccccc1Cl)=NC21CC1)C[C@H](C(=O)NC1CCc2ncsc2C1)C3 (stereo partly drawn) [Example 34] | –
8.9 nM | Cc1nnc2n1-c1sc3c(c1C(c1ccccc1Cl)=NC21CC1)C[C@H](C(=O)NC1CCc2ncccc2C1)C3 (stereo partly drawn) [Example 97] | –
12 nM | Cc1nnc2n1-c1sc3c(c1C(c1ccccc1Cl)=NC21CC1)C[C@H](C(=O)NC1CCOCC1)C3 [Example 51] | IC50 [2]: 9.7 nM
4 nM | Cc1nnc2n1-c1sc3c(c1C(c1ccccc1Cl)=NC21CC1)C[C@H](C(=O)N(C)[C@H]1c2ccccc2CC[C@@H]1O)C3 [Example 86] | –
1.3 nM | Cc1nnc2n1-c1sc3c(c1C(c1ccccc1Cl)=NC21CC1)C[C@H](C(=O)N[C@@H]1C[C@H]1c1ccccc1)C3 [Example 60] | –
8.1 nM | CCn1ncc2c1CC[C@@H](NC(=O)[C@@H]1Cc3sc4c(c3C1)C(c1ccccc1Cl)=NC1(CC1)c1nnc(C)n1-4)C2 [Example 99] | –
4.6 nM | Cc1nnc2n1-c1sc3c(c1C(c1ccccc1Cl)=NC21CC1)C[C@H](C(=O)N1C[C@H](C)O[C@@H](C)C1)C3 [Example 108, (13′S)-9′-(2-chlorophenyl)-13′-[(2S,6S)-2,6-dimethylmorpholine-4-carbonyl]-3′-methyl-16′-thia-2′,4′,5′,8′-tetraazaspiro[cyclopropane-1,7′-tetracyclo[8.6.0.0^2,6.0^11,15]hexadecane]-1′(10′),3′,5′,8′,11′(15′)-pentaene] | –
22 nM | Cc1nnc2n1-c1sc3c(c1C(c1ccccc1Cl)=NC21CC1)C[C@H](C(=O)N(C)[C@H]1CC[C@H](O)CC1)C3 [Example 112] | IC50 [2]: 11.9 nM
3.9 nM | Cc1nnc2n1-c1sc3c(c1C(c1ccccc1Cl)=NC21CC1)C[C@H](C(=O)N(C)[C@@H]1CCCC[C@@H]1O)C3 [Example 41] | –
83 nM | Cc1nnc2n1-c1sc3c(c1C(c1cc(C#N)ccc1Cl)=NC21CC1)C[C@H](C(=O)N1CCOCC1)C3 [Example 2, 4-chloro-3-[(13′S)-3′-methyl-13′-(morpholine-4-carbonyl)-16′-thia-2′,4′,5′,8′-tetraazaspiro[cyclopropane-1,7′-tetracyclo[8.6.0.0^2,6.0^11,15]hexadecane]-1′(10′),3′,5′,8′,11′(15′)-pentaen-9′-yl]benzonitrile] | –
1.9 nM | Cc1nnc2n1-c1sc3c(c1C(c1ccccc1Cl)=NC21CC1)C[C@H](C(=O)NC1CCCC1)C3 [Example 14] | –
9.1 nM | Cc1nnc2n1-c1sc3c(c1C(c1ccccc1Cl)=NC21CC1)C[C@H](C(=O)N[C@H]1CC[C@H](C(C)(C)O)CC1)C3 [Example 98] | –
9.4 nM | Cc1nnc2n1-c1sc3c(c1C(c1ccccc1Cl)=NC21CC1)C[C@H](C(=O)N1CC2(CCCO2)C1)C3 [Example 126, (13′S)-9′-(2-chlorophenyl)-3′-methyl-13′-{5-oxa-2-azaspiro[3.4]octane-2-carbonyl}-16′-thia-2′,4′,5′,8′-tetraazaspiro[cyclopropane-1,7′-tetracyclo[8.6.0.0^2,6.0^11,15]hexadecane]-1′(10′),3′,5′,8′,11′(15′)-pentaene] | –
1 nM | Cc1nnc2n1-c1sc3c(c1C(c1ccccc1Cl)=NC21CC1)C[C@H](C(=O)N[C@H]1CC[C@H](C(F)(F)F)CC1)C3 [Example 15] | –
24 nM | Cc1nnc2n1-c1sc3c(c1C(c1ccccc1Cl)=NC21CC1)C[C@H](C(=O)N(C)[C@H]1CCN(S(C)(=O)=O)C1)C3 [Example 111, (13′S)-9′-(2-chlorophenyl)-N-[(3S)-1-methanesulfonylpyrrolidin-3-yl]-N,3′-dimethyl-16′-thia-2′,4′,5′,8′-tetraazaspiro[cyclopropane-1,7′-tetracyclo[8.6.0.0^2,^6.0^11,15]hexadecane]-1′(10′),3′,5′,8′,11′(15′)-pentaene-13′-carboxamide] | –

Second part, the compound before the results:

Compound | IC50 [1] | other results
Cc1nnc2n1-c1sc3c(c1C(c1ccccc1)=NC21CC1)C[C@H](C(=O)N1CCOCC1)C3 [Example 120, (13′S)-3′-methyl-13′-(morpholine-4-carbonyl)-9′-phenyl-16′-thia-2′,4′,5′,8′-tetraazaspiro[cyclopropane-1,7′-tetracyclo[8.6.0.0^2,6.0^11,15]hexadecane]-1′(10′),3′,5′,8′,11′(15′)-pentaene] | 14 nM | –
Cc1nnc2n1-c1sc3c(c1C(c1ccccc1Cl)=NC2)C[C@H](C(=O)N1CCOCC1)C3 [S-bepafant, reference compound] | – | IC50 (S-bepafant and its methylated derivatives in the above-mentioned assay): 73.5 nM
Cc1nnc2n1-c1sc3c(c1C(c1ccccc1Cl)=NC2(C)C)C[C@H](C(=O)N[C@@H]1CCC(F)(F)C1)C3 [reference compound] | – | IC50 [2]: 7.7 nM
Cc1nnc2n1-c1sc3c(c1C(c1ccccc1Cl)=NC2(C)C)C[C@H](C(=O)NC1CCC1)C3 [reference compound] | – | IC50 [2]: 7.6 nM
Cc1nnc2n1-c1sc3c(c1C(c1ccccc1Cl)=NC21CC1)C[C@H](C(=O)N[C@H]1C[C@H]2OCCC[C@@H]12)C3 [Example 93] | 5.2 nM | –
Cc1nnc2n1-c1sc3c(c1C(c1ccccc1Cl)=NC21CC1)C[C@H](C(=O)N1C[C@@H](C)O[C@H](C)C1)C3 [Example 123, (13′S)-9′-(2-chlorophenyl)-13′-[(2R,6R)-2,6-dimethylmorpholine-4-carbonyl]-3′-methyl-16′-thia-2′,4′,5′,8′-tetraazaspiro[cyclopropane-1,7′-tetracyclo[8.6.0.02,6.011,15]hexadecane]-1′(10′),3′,5′,8′,11′(15′)-pentaene] | 5 nM | –
CCN(C(=O)[C@@H]1Cc2sc3c(c2C1)C(c1ccccc1Cl)=NC1(CC1)c1nnc(C)n1-3)C1CCCCC1 [Example 91] | 1.5 nM | –
CCOC(=O)N1CCC(N(C)C(=O)[C@@H]2Cc3sc4c(c3C2)C(c2ccccc2Cl)=NC2(CC2)c2nnc(C)n2-4)CC1 [Example 72] | 4.9 nM | –
Cc1nnc2n1-c1sc3c(c1C(c1ccccc1Cl)=NC21CC1)C[C@H](C(=O)N1CCO[C@@H](C)C1)C3 [Example 106, (13′S)-9′-(2-chlorophenyl)-3′-methyl-13′-[(2S)-2-methylmorpholine-4-carbonyl]-16′-thia-2′,4′,5′,8′-tetraazaspiro[cyclopropane-1,7′-tetracyclo-[8.6.0.0^2,6.0^11,15]hexadecane}-1′(10′),3′,5′,8′,11′(15′)-pentaene] | 7.5 nM | –
Cc1nnc2n1-c1sc3c(c1C(c1ccccc1Cl)=NC21CC1)C[C@H](C(=O)N[C@@H]1C[C@H]1C)C3 [Example 107] | 2.7 nM | –
Cc1nnc2n1-c1sc3c(c1C(c1ccccc1Cl)=NC21CC1)C[C@H](C(=O)N[C@H]1CCc2cccc(F)c21)C3 [Example 53] | 0.5 nM | –
Cc1nnc2n1-c1sc3c(c1C(c1ccccc1Cl)=NC21CC1)C[C@H](C(=O)N[C@H]1CCc2ccccc21)C3 [Example 82] | 1.5 nM | –
Cc1nnc2n1-c1sc3c(c1C(c1ccccc1Cl)=NC21CC1)C[C@H](C(=O)N[C@H]1C[C@H](C#N)C1)C3 [Example 49] | 7.7 nM | –
Cc1nnc2n1-c1sc3c(c1C(c1ccccc1Cl)=NC21CC1)C[C@H](C(=O)N[C@H]1C[C@@H]1c1ccccc1)C3 [Example 17] | 1.2 nM | –
Cc1nnc2n1-c1sc3c(c1C(c1ccccc1Cl)=NC21CC1)C[C@H](C(=O)N[C@@H]1COCC(F)(F)C1)C3 [Example 110] | 4.3 nM | –
Cc1nnc2n1-c1sc3c(c1C(c1ccccc1Cl)=NC21CC1)C[C@H](C(=O)N[C@H]1CC[C@H](C(F)F)CC1)C3 [Example 76] | 1.9 nM | –
Cc1nnc2n1-c1sc3c(c1C(c1ccccc1Cl)=NC21CC1)C[C@H](C(=O)N[C@H]1CC[C@@H](F)CC1)C3 [Example 36] | 3.5 nM | –
Cc1nnc2n1-c1sc3c(c1C(c1ccccc1Cl)=NC21CC1)C[C@H](C(=O)N[C@H]1COC[C@H]1C)C3 [Example 28] | 6.8 nM | –
Cc1nnc2n1-c1sc3c(c1C(c1ccccc1Cl)=NC21CC1)C[C@H](C(=O)NC1(c2ccccc2)CCOCC1)C3 [Example 96] | 6 nM | –
Cc1nnc2n1-c1sc3c(c1C(c1ccccc1Cl)=NC21CC1)C[C@H](C(=O)N[C@@H]1COC[C@@H]1C)C3 [Example 30] | 7.2 nM | –
Cc1nnc2n1-c1sc3c(c1C(c1ccccc1Cl)=NC21CC1)C[C@H](C(=O)N[C@@H]1CCOC1)C3 [Example 95] | 17 nM | –
Cc1nnc2n1-c1sc3c(c1C(c1ccccc1Cl)=NC21CC1)C[C@H](C(=O)N(C)C1CCC(C)(C)CC1)C3 [Example 79] | 0.9 nM | –
Cc1nnc2n1-c1sc3c(c1C(c1ccccc1Cl)=NC21CC1)C[C@H](C(=O)NC1CC1)C3 [Example 74] | 5.5 nM | –
Cc1nnc2n1-c1sc3c(c1C(c1ccccc1Cl)=NC21CC1)C[C@H](C(=O)NC1(c2cncnc2)CC1)C3 [Example 117] | 28 nM | –
Cc1nnc2n1-c1sc3c(c1C(c1ccccc1Cl)=NC21CC1)C[C@H](C(=O)NC1COc2ccccc21)C3 (stereo partly drawn) [Example 55] | 1.4 nM | –
Cc1nnc2n1-c1sc3c(c1C(c1ccccc1Cl)=NC2(C)C)C[C@H](C(=O)NC1CCOCC1)C3 [reference compound] | – | IC50 [2]: 65 nM
